Counter-ions that a name gives are not always drawn. Each block holds one molecule with its values, some of them ahead of it.
How the values were obtained:
[1] = Plasma protein binding by ultrafiltration; type: in vitro ADME; details: human plasma
Protocol: Protein binding was also measured as follows: Ultrafiltrate (UF) samples were obtained by centrifuging the above-mentioned Compound 1-contaning heparinized human plasma in molecular weight cutoff ultrafiltration devices (30,000 Da) at ˜3000 rpm (30 min, ˜37° C.). The UF samples (0.025 mL) were mixed with an internal standard solution—0.050 mL of ˜800 ng/mL O^13CD3-Compound 1 (in which the OCH3 group was replaced with the O^13CD3 group), diluted by 20 folds, and analyzed by reverse-phase HPLC on a 3.5 micron C-18 column. Quantitation was obtained by the multiple reaction monitoring method through positive ion Turbo-Ion Spray ionization. Ultrafiltrate standards were used to quantify the unbound drug in plasma quality control samples and unknown specimens. Non-specific protein binding (NSB) was measured (NSB=0.0415) and used as a correction factor to determine the final % protein bindings. The nominal range of quantitation for the analyte was 50 to 10,000 ng/mL. 0.400 mL aliquot of human plasma was used in the assay. Sample concentrations were determined by back-calculation using a weighted linear (1/x^2) regression of a calibration curve generated from spiked UF standards. Over the linear range, the inter-batch % CV for Compound 1 was 4.9% to 11.8%.

[2] = tested on: multidrug-resistant methicillin-resistant Staphylococcus aureus; experiment: Agar dilution MIC against multidrug-resistant MRSA (Taiwan isolates); type: cell-based
Protocol: Compound 1 was tested for its inhibitory effect against multidrug-resistant methicillin-resistant Staphylococcus aureus obtained by 10 medical centers in all regions of Taiwan. MICs were determined using the agar dilution methods recommended by the Clinical and Laboratory Standards Institute (CLSI-M100-S18).

[3] = Pharmacokinetic analysis of plasma (Cmax, AUC0-24h) at steady state; type: in vivo, human; details: for Free AUC0-24: corrected for plasma protein binding; for Cmax / AUC(0-t): human, po, steady state, plasma; for Cmax: in vivo
[4] = tested on: Methicillin-Resistant Staphylococcus aureus; experiment: Broth microdilution against MRSA isolates (CAN-ICU Study); type: cell-based
From the text: MRSA isolates (n=193) were obtained as part of the Canadian National Intensive Care Unit (CAN-ICU) Study. 19 medical centers from all regions of Canada with active ICUs participated in the CAN-ICU study included. They were requested to only obtain “clinically significant” specimens from patients with a presumed infectious disease. Surveillance swabs, eye, ear, nose and throat swabs were excluded. Anaerobic organisms and fungal organisms were also excluded.
From September 2005-June 2006 (inclusive), each center collected a maximum of 300 consecutive pathogens isolated from blood, urine, tissue/wound, and respiratory specimens (one pathogen per cultured site per patient) of ICU patients. These isolates were shipped to the reference laboratory (Health Sciences Centre, Winnipeg, Canada) on Amies charcoal swabs, subcultured in appropriate media, and stocked in skim milk at −80° C.
The isolates' methicillin resistance was confirmed using the disk diffusion method described by the Clinical and Laboratory Standards Institute. […] Their PFGE fingerprints thus obtained were analyzed with BioNumerics v3.5 (Applied Maths St. Marten-Latem, Belgium) using a position tolerance of 1.0 and an optimization of 1.0. Strain relatedness was determined as previously described (Tenover et al., 1995). […]

[5] = tested on: community-acquired pneumonia; experiment: Randomized, double-blind clinical trials in community-acquired pneumonia; type: in vivo, human; details: for cure rate / subjects cured: after 7 days; for cure rate: adult patients
Protocol: Randomized, double-blind clinical trials were conducted at 17 sites in Taiwan and South Africa to assess the effectiveness of Compound 1 in treating adult patients with community-acquired pneumonia.
The trials included a total of 265 subjects having community-acquired pneumonia. The average age of the subjects was 43.5 years old and the average body weight was 66.17 kg. About 50% of the subjects were male, and about 62% of the subjects were Black or African American, about 21% White, and about 15% Asian.
Among the 265 subjects, 86 were treated with 3 Compound 1-containing capsules (750 mg of the free base compound, i.e., (3S,5S)-7-[3-amino-5-methyl-piperidinyl]-1-cyclopropyl-1,4-dihydro-8-methoxy-4-oxo-3-quinolinecarboxylic acid) per day, 89 with 2 Compound 1-containing capsules (500 mg of the free base compound) per day, and 90 with 2 levofloxacin capsules (500 mg of levofloxacin) per day for 7 consecutive days. In each group, the drug capsules were orally taken by the subjects in the morning with a full glass of water (240 mL). Within 2 hours after taking the drugs, the subjects were not allowed to eat, but water intake (no more than 240 mL) was permitted. Overall, 10.6% of randomized subjects withdrew from the treatments.

[6] = tested on: Methicillin-Resistant Staphylococcus aureus; experiment: Broth microdilution MIC against methicillin-resistant Staphylococcus aureus (Taiwan isolates); type: cell-based; details: 0.008 to 8 μg/ml
Protocol: (§1) The Staphylococcus aureus and Streptococcus pneumoniae isolates were obtained by 10 medical centers in all regions of Taiwan. MICs were determined using the broth microdilution method.

Streptococcus pneumoniae = experiment: Broth microdilution MIC against Streptococcus pneumoniae (Taiwan isolates); type: cell-based; details: 0.008 to 8 μg/ml
Protocol: as §1

[7] = 500 mg per day orally, 89 treated (Compound 1), 90 treated (levofloxacin)

fraction unbound at 30 min ([1]; 500 mg per day, 500 mg q24 p.o.): 0.84 | Protein Binding ([1]; 750 mg q24 p.o.): 16% | Protein Binding ([1]; 1000 mg q24 p.o.): 16% | Free AUC0-24 ([3]; 500 mg q24 p.o.): 32400 ng·h/mL | Free AUC0-24 ([3]; 750 mg q24 p.o.): 49100 ng·h/mL | Free AUC0-24 ([3]; 1000 mg q24 p.o.): 62900 ng·h/mL | Cmax ([3]; 500 mg q24 p.o.): 5560 ng/mL | Cmax ([3]; 750 mg q24 p.o.): 6820 ng/mL | Cmax ([3]; 1000 mg q24 p.o.): 8200 ng/mL | AUC(0-t) ([3]; 500 mg q24 p.o.): 38600 ng·h/mL | AUC(0-t) ([3]; 750 mg q24 p.o.): 58400 ng·h/mL | AUC(0-t) ([3]; 1000 mg q24 p.o.): 74800 ng·h/mL
Compound: COc1c(N2C[C@@H](C)C[C@H](N)C2)ccc2c(=O)c(C(=O)O)cn(C3CC3)c12 [Compound 1, malate salt hemihydrate of (3S,5S)-7-[3-amino-5-methyl-piperidinyl]-1-cyclopropyl-1,4-dihydro-8-methoxy-4-oxo-3-quinolinecarboxylic acid]
inhibitory effect against MRSA isolates that are Ciprofloxacin-resistant, Vancomycin-intermediate-resistant, and Daptomycin-nonsusceptible [2]: effective in inhibiting | activity against community-associated-MRSA versus healthcare-associated-MRSA strains [4]: more active against community-associated-MRSA strains than healthcare-associated-MRSA strains | inhibitory activity against the MRSA isolates ([4]; 193 MRSA isolates): effectively inhibited MRSA | cure rate ([5]; 500 mg per day orally): 75.3% | subjects cured [5, 7]: 67 subjects | cure rate ([5]; 750 mg per day orally): 82.6% | subjects cured ([5]; 750 mg per day orally, 86 treated): 71 subjects | effectiveness in treating community-acquired pneumonia ([5]; oral capsules, 7 consecutive days): effective in treating community-acquired pneumonia

Compound: COc1c(N2C[C@H](C)C[C@H](N)C2)ccc2c(=O)c(C(=O)O)cn(C3CC3)c12 [Compound 1′, malate salt hemihydrate of (3S,5R)-7-[3-amino-5-methyl-piperidinyl]-1-cyclopropyl-1,4-dihydro-8-methoxy-4-oxo-3-quinolinecarboxylic acid]
inhibitory effect against methicillin-resistant Staphylococcus aureus [6]: effective in inhibiting | inhibitory effect against Streptococcus pneumoniae (Streptococcus pneumoniae): effective in inhibiting

Compound: C[C@H]1COc2c(N3CCN(C)CC3)c(F)cc3c(=O)c(C(=O)O)cn1c23 [levofloxacin, reference compound]
cure rate ([5]; 500 mg per day orally): 80.0% | subjects cured [5, 7]: 72 subjects
